# Reference: patent publication US20250263444A1, “vIRF3-Derived Peptide and Use Thereof for Preventing or Treating Cancer” (priority 2022, published 2025)
# Assays:
# ATP-citrate lyase (ACLY) = assay: Immunoblotting with anti-acetyl-lysine antibody of LEC stable cell lines treated with ACLY inhibitor; format: cell-based; conditions: LEC lines pCDH, V5-vIRF3, V5-vIRF3(Δ250-280) treated with BMS303141
# Protocol: Acetyl-CoA is a crucial metabolite that provides acetyl groups for acetylation reaction of proteins including histone. To better understand the importance of acetyl-CoA upregulation by vIRF3 in LEC, first, it was confirmed whether vIRF3 may increase the overall acetylation level in LEC. To this end, cell lysates were analyzed by immunoblotting (IB) using an anti-acetyl-lysine antibody. […] Especially, cytosolic acetyl-CoA, which was involved in lysine acetylation of protein, regulating the activity, stability, or localization of many cell proteins is primarily generated by the translocation of citrate from the mitochondria to the cytoplasm via ATP-citrate lyase (ACLY). Therefore, three LEC stable cell lines encoding expression vectors of pCDH, V5-vIRF3, and V5-vIRF3(Δ250-280) were treated with an ACLY inhibitor BMS303141 and then analyzed by IB with an anti-acetyl-lysine antibody.
# [1] = system: recombinant KSHV-infected LECs; assay: Xenograft model, subcutaneous peptide administration; format: in vivo, mice
# tetrameric form of PKM2 = target: T1, tetrameric form of PKM2 (Homo sapiens, UniProt P14618); assay: PKM2 cross-linking and gradient SDS-PAGE immunoblotting; format: cell-based; conditions: LECs expressing vIRF3; FIG. 8B
# T1 construct: endogenous in cells; host or cells: E6/E7-immortalised LECs stably expressing V5-vIRF3 by lentivirus (PKM2 endogenous, vIRF3 transduced)
# T1 sequence (P14618 2-531 limits assumed): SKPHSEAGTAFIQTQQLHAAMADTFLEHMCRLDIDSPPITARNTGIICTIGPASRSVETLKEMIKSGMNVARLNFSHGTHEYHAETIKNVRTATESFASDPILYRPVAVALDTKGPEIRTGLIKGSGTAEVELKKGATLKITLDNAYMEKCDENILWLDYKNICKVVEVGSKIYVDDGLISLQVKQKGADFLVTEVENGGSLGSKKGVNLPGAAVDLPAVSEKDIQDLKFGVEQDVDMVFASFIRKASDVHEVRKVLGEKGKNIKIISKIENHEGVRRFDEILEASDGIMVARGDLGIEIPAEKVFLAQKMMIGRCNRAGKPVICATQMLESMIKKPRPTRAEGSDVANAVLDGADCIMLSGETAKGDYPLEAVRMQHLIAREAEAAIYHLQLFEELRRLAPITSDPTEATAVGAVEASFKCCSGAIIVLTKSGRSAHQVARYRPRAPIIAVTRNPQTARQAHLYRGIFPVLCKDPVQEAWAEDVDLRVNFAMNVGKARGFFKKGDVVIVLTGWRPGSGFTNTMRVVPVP
# Protocol: 293T cells were infected with indicated combination of plasmids and harvested 48 hours after infection. The cells were lysed with a NP40 lysis buffer supplemented with a protease inhibitor (150 mM NaCl, 0.5% NP40, 50 mM pH 8.0 Tris-HCl) and treated with 0.1% glutaraldehyde for 4 minutes at room temperature. Thereafter, gradient SDS-PAGE was performed with NuPAGE 4-12% Bis-Tris gel (Invitrogen) and analyzed by immunoblotting.
# PKM2 [2] = target: T2, PKM2 (Homo sapiens, UniProt P14618); assay: Binding of vIRF3-derived peptide fragments to PKM2 (GST-pull down / immunoprecipitation, FIG. 7); parameters: expressed in transfected cells
# T2 sequence (P14618 whole entry, the tested form may be a part): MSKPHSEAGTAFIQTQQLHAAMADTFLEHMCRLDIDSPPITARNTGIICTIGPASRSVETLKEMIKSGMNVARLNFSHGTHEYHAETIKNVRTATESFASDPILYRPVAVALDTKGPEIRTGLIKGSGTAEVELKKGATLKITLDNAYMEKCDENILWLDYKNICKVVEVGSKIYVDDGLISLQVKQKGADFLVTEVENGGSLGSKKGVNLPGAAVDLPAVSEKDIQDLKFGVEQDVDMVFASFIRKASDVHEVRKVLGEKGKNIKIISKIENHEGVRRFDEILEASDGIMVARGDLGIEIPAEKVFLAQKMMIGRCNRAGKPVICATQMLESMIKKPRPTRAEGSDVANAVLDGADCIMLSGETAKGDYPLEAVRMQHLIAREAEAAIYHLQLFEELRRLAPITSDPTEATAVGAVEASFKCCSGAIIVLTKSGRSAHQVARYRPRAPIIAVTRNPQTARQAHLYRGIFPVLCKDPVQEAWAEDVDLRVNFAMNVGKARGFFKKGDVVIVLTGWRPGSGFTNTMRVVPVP
# Description: A pCMV-HA-hPKM2 plasmid was provided by from the Miyagi Cancer Center Research Institute, Natori, Japan. In addition, a vIRF3 (Δ250-280) mutant was generated by sequentially deleting 10 amino acids from alanine 250 using a QuikChange XL site-directed mutagenesis kit (Agilent). Primer pairs used in vIRF3 deletion mutation were as follows: vIRF3(Δ250-260) forward 5′-[…]-3′ (SEQ ID NO: 8), vIRF3(Δ250-260) reverse 5′-[…]-3′ (SEQ ID NO: 9), vIRF3(Δ260-270) forward 5′-[…]-3′ (SEQ ID NO: 10), vIRF3(Δ260-270) reverse 5′-[…]-3′ (SEQ ID NO: 11), vIRF3(Δ270-280) forward 5′-[…]-3′ (SEQ ID NO: 12), and vIRF3(Δ270-280) reverse 5′-[…]-3′ (SEQ ID NO: 13). GST-tagged vIRF3 250-260, 260-270, and 270-280 were subcloned into a pEBG-GST vector with BamHI and NotI restriction sites using the following primers: vIRF3(250-260) forward 5′-[…] GGC-3′ (SEQ ID NO: 14), vIRF3(250-260) reverse 5′-[…] CG-3′ (SEQ ID NO: 15), vIRF3(260-270) forward 5′-GATCCGCCACCAT […]-3′ (SEQ ID NO: 16), vIRF3(260-270) reverse 5′-[…] G-3′ (SEQ ID NO: 17), vIRF3(270-280) forward 5′-[…] GC-3′ (SEQ ID NO: 18), and vIRF3 270-280 reverse 5′-[…] GGCG-3′ (SEQ ID NO: 19).
# The indicated cells were infected regardless of the presence or absence of combination of plasmids. […] Cell lysates were immunoprecipitated against indicated proteins and analyzed by immunoblotting according to methods known in the art.
# PKM2 [3] = target: T2, PKM2; assay: Pyruvate kinase activity assay in LECs treated with TAT or TAT-VDP; format: cell-based; parameters: endogenous in cells; host or cells: E6/E7-immortalised LECs (LEC-V5-vIRF3 or LEC-vector); conditions: LEC-V5-vIRF3 cells; VDP fused to HIV-1 TAT; FIG. 8C
# Protocol: Pyruvate kinase activity assay was performed with a Pyruvate Kinase Assay Kit (Sigma Aldrich) according to manufacturer's instructions. Briefly, LECs expressing a pCDH vector, vIRF3, and vIRF3(Δ250-280), respectively were harvested and washed twice with 1×PBS. The cells were suspended in 50 μl of a pyruvate kinase assay buffer and incubated for 15 minutes. Cell debris was removed by centrifugation at 13,000 rpm for 15 minutes. The supernatant was transferred to a 96-well plate and added with a kinase assay mixture. Absorbance was measured at 570 nm wavelength using a Varioskan Lux microplate reader (Thermo scientific).
# LEC-V5-vIRF3 = assay: Chorioallantoic membrane (CAM) invasion assay; format: in vivo, chick; conditions: 0.2 mg peptide at 24 and 48 hours after cell seeding; IHC; FIG. 8D
# Protocol: The chick fertilized eggs were incubated at 37.5° C. with 70% humidified atmosphere in a Rcom D-50 incubator (Autoelex). After embryonic day (ED) 5, a 1.5 cm square hole was opened on the eggshell and sealed with a sterile parafilm tape. Embryos were monitored by daily candling. On ED 10, sterile silicone rings were placed onto the CAM of the embryo and added with indicated cells, and then the cells were seeded. 0.2 mg of TAT (a control peptide containing only a TAT sequence of HIV-1 (synthesized by Bionics)) or TAT-VDP according to the present invention (vRIF3-derived aa250-260 peptide bound with a TAT sequence (synthesized by Bionics)) was treated at 24 and 48 hours after cell seeding. Approximately 1 cm^2 of CAM around the silicone ring was harvested and fixed with 4% paraformaldehyde at 4° C. for 24 hours. Thereafter, samples were treated for immunohistochemistry and Hematoxyling and Eosin (H&E) staining.
compound,measurement,setting,value
COc1ccc(-c2ccccc2)cc1NS(=O)(=O)c1cc(Cl)cc(Cl)c1O [BMS303141],increase of total acetylation levels by vIRF3,ATP-citrate lyase (ACLY),the increase of total acetylation levels was not confirmed
TAT-VDP: vRIF3-derived aa250-260 peptide bound with a TAT sequence of HIV-1 for intracellular delivery (synthesized by Bionics) (RRRQRRKKRGYGEQGVHYMLACA),tumor formation,"[1]; 0.2 mg peptide twice per week for 30 days, subcutaneous, FIG. 8E",remarkably inhibited
same,vIRF3-mediated tetrameric form of PKM2,tetrameric form of PKM2,sufficiently prevented
vIRF3(260-270): fragment peptide of amino acids 260-270 of KSHV vIRF3 (SEQ ID NO: 4) (EMDMLMRAMCD),binding to PKM2,PKM2 [2],mutual-bound to PKM2
vIRF3(270-280): fragment peptide of amino acids 270-280 of KSHV vIRF3 (SEQ ID NO: 5) (DEDLFDLLGIP),binding to PKM2,PKM2 [2],mutual-bound to PKM2
"vIRF3-derived peptide: vIRF3-derived peptide of SEQ ID NO: 1, included within aa 250-280 of KSHV vIRF3 (ACALMYHVGQEMDMLMRAMCDEDLFDLLGIP)",PK activity upregulated by vIRF3 expression,PKM2 [3],significantly inhibited
same,size and volume of tumor,"[1]; subcutaneous injection, animal model transplanted with LECs infected with KSHV",significantly reduced
same,invasion of LEC-V5-vIRF3 in CAM (invasive activity),LEC-V5-vIRF3,significantly inhibited
